In patent US9232800B2:
Marks after values point to notes of the source that are not given here.

Tested on: Meloidogyne incognita nematodes
Experiment: Miniaturized greenhouse nematicidal efficacy assay (cucumber seedlings in sand, root gall rating)
[1] = 0.5 ppm, test b, average of triplicate gall ratings (scale 0-3, % root mass galled)
[2] = 1 ppm, test b, average of triplicate gall ratings (scale 0-3, % root mass galled)
[3] = 8 ppm, test b, average of triplicate gall ratings (scale 0-3, % root mass galled)
[4] = 0.5 ppm, test a, average of triplicate gall ratings (scale 0-3, % root mass galled)
[5] = 1 ppm, test a, average of triplicate gall ratings (scale 0-3, % root mass galled)
[6] = 8 ppm, test a, average of triplicate gall ratings (0=0-5%, 1=6-20%, 2=21-50%, 3=51-100% root mass galled), harvest 10 to 12 days after inoculation

Molecule	8/1/0.5 ppm gall ratings* [1]	8/1/0.5 ppm gall ratings* [2]	8/1/0.5 ppm gall ratings* [3]	8/1/0.5 ppm gall ratings* [4]	8/1/0.5 ppm gall ratings* [5]	8/1/0.5 ppm gall ratings* [6]
Clc1cccc(C2NC(c3cccs3)=NO2)c1 (stereo not shown) [IIa-ii, 5-(3-chlorophenyl)-3-(thiophen-2-yl)-4,5-dihydro-1,2,4-oxadiazole]	3.00	2.33	0.33	–	–	–
c1ccc(C2=NOC(c3cccs3)N2)cc1 (stereo not shown) [Ia-i, 3-phenyl-5-(thiophen-2-yl)-4,5-dihydro-1,2,4-oxadiazole]	2.67	1.67	0.00	2.33	1.33	0.00
Clc1ccc(C2=NOC(c3ccoc3)N2)cc1 (stereo not shown) [Ib-iv, 3-(4-chlorophenyl)-5-(furan-3-yl)-4,5-dihydro-1,2,4-oxadiazole]	2.67	1.33	0.00	–	–	–
Fc1ccc(C2=NOC(c3cccs3)N2)cc1 (stereo not shown) [Ia-v, 3-(4-fluorophenyl)-5-(thiophen-2-yl)-4,5-dihydro-1,2,4-oxadiazole]	1.67	0.00	0.00	–	–	–
Clc1ccc(C2=NOC(c3ccco3)N2)c(Cl)c1 (stereo not shown) [Ia-ix, 3-(2,4-dichlorophenyl)-5-(furan-2-yl)-4,5-dihydro-1,2,4-oxadiazole]	3.00	2.33	0.00	–	–	–
Abamectin [reference compound]	–	–	–	–	1.67^a	–
Clc1ccc(C2=NOC(c3ccco3)N2)cc1 (stereo not shown) [Ia-iii, 3-(4-chlorophenyl)-5-(furan-2-yl)-4,5-dihydro-1,2,4-oxadiazole]	3.00	1.67	0.00	–	–	–
c1ccc(C2=NOC(c3ccco3)N2)cc1 (stereo not shown) [Ia-ii, 5-(furan-2-yl)-3-phenyl-4,5-dihydro-1,2,4-oxadiazole]	2.33	0.67	0.00	2.67	2.00	0.00
Cc1cc(Cl)ccc1C1NC(c2ccco2)=NO1 (stereo not shown) [IIa-iii, 5-(4-chloro-2-methylphenyl)-3-(furan-2-yl)-4,5-dihydro-1,2,4-oxadiazole]	2.33	1.67	0.00	–	–	–
Cc1cc(Cl)ccc1C1=NOC(c2ccco2)N1 (stereo not shown) [Ia-iv, 3-(4-chloro-2-methylphenyl)-5-(furan-2-yl)-4,5-dihydro-1,2,4-oxadiazole]	2.67	1.67	0.00	–	–	–
